The subject of series [1] is cdc2 in PDV cells. In words: Western blot p-cdc2/cdc2. The class given is cell-based, mouse. The note with it: 24 h; KWM-EO 75 μg/mL, LM-EO 75 μg/mL, L+C 60 μg/mL, PLX4032 0.5 μM, each alone. The method, then: (§1) Cells were treated with EOs or compounds at the indicated concentrations and lysed in RIPA lysis buffer. Protein concentrations were measured by DC protein assay (Bio-Rad, United States). Western blotting was performed as described by Shyur et al. Protein samples were separated by 10 or 12% SDS-PAGE, and electro-transferred onto PVDF membranes (Merck Millipore, United States). The membranes were blocked with 5% skimmed milk in TBST for 1 h at room temperature. After washing the membranes three times with TBST, membranes were incubated with appropriate primary antibodies overnight (12-16 h) at 4° C. The membranes were washed with TBST three times, followed by incubation with horseradish peroxidase (HRP)-conjugated anti-mouse IgG or anti-rabbit IgG secondary antibodies for 2 h at room temperature. Reactive protein bands were visualized using enhanced chemiluminescent detection reagents (GE Healthcare, United States) and exposed to chemiluminescence light film (GE Healthcare, United States). The expression levels of targeted proteins were quantified by ImageJ software (National Institutes of Health, United States).
A general note: Immunoblotting shows a protein as a band on a membrane.

The subject of series [2] is DMBA/TPA/PLX4032-induced skin papilloma. In words: Two-stage skin carcinogenesis, DMBA/TPA accelerated by PLX4032. In kind it is in vivo, FVB/NJNarl mice. As to the method:
Female FVB/NJNarl mice (5-6 weeks old) were randomized into 9 groups, each group contained 8 mice. Mice had their back hair shaved three days before topical application of 25 μg 7,12-dimethylbenz[a]anthracene (DMBA) in 200 μL acetone. The first week after tumor initiation, 4 μg of 12-O-tetradecanoylphorbol-13-acatate (TPA) in 200 μL acetone was topically applied twice a week to the shaved back skin for 12 weeks. Mice were treated with the indicated concentrations of mint EOs or compounds (in 200 μL acetone) twice a week by topical application the day after TPA treatment for 12 weeks. Tumor size of more than 1 mm diameter was counted every week. After mice were sacrificed, internal organs (heart, liver, spleen, lung, and kidneys), serum, skin and papillomas were collected and fixed with 10% formalin or stored at −80° C.

Series [3] has as its system patients. The following applies: patients treated with PLX4032; cited from earlier work.
Series [4] deals with epidermis of mouse dorsal skin. Briefly: Histopathology (H&E) of mouse skin from two-stage skin carcinogenesis. The class given is in vivo, FVB mice. The following applies: intraperitoneal PLX4032 in DMBA/TPA skin.
The subject of series [5] is B16 melanoma cells. Briefly: Depigmentation assay (melanin absorbance 405 nm). In kind it is cell-based, Murine. The following applies: 24 h; 15 and 25 μg/mL LM-EO, 100 μg/mL KA. The method, then:
B16 cells (1×10^6 cells/15-cm dish) were treated with vehicle (0.5% DMSO), 15 and 25 μg/mL LM-EO (LM15 and LM25), or 100 μg/mL kojic acid (KA100) for 6, 12, 24 h. After washing with PBS for two times, the cells were harvested by cell scrapper and centrifugation. The cell pellets were then taken a photo before dissolved in 1 N NaOH at 60° C. for 1 h. The volume of NaOH used to dissolve the cell pellets were adjusted based on the cell populations to yield the equal concentration. The absorbance was then measured at 405 nm.

In series [6] the test system is tyrosinase in B16 cells. Briefly: Western blot of tyrosinase in B16 cells. The class given is cell-based, Murine. The note with it: 6, 12, 24 h. As to the method:
as §1

The structures appear in SMILES notation.

For the compound `CCCS(=O)(=O)Nc1ccc(F)c(C(=O)c2c[nH]c3ncc(-c4ccc(Cl)cc4)cc23)c1F` [PLX4032, vemurafenib], the “ratio of phospho-cdc2 to cdc2, increase vs vehicle” value in series [1] was 2.1 fold. In series [2] (PLX4032 in DMBA/TPA mice), the “swelling of the spleen, effect of PLX4032” value is “exacerbated the swelling of the spleen”. The “tumor multiplicity, effect of PLX4032 on DMBA/TPA mice” value in series [2] (intraperitoneal PLX4032) is reported as “greatly increased the tumor multiplicity”. Moreover, in series [3], the “patients developing squamous cell carcinoma (SCC) and keratoacanthoma (KA)” value is on record as 20-30%. Moreover, the “proliferation and hyperplasia of the epidermis, effect of PLX4032” value in series [4] was “exacerbated the proliferation and hyperplasia of the epidermis”.
As to `O=c1cc(CO)occ1O` [KA, Kojic acid], the “depigmentation effect (melanin)” value in series [5] is on record as “depigmentation effect with statistical significance”. Moreover, the tyrosinase expression result in series [6] was “time-dependently inhibited tyrosinase expression”.

Source of the values: patent publication US11872260B2, “Mint essential oils inhibit HRASQ61L mutant keratinocyte activity and prevent skin carcinogenesis” (ACADEMIA SINICA, priority 2018, dated 2024).
